Data set [1] can be described thus: Pharmacokinetic test in rats. It counts as in vivo, male SD rats. As to conditions: male, SD, rat, plasma. As to the method:
For the in vivo pharmacokinetic test of rats, 6 male SD rats were used, 180-240 g, fasted overnight. […] The blood samples were centrifuged at 8,000 rpm at 4° C. for 6 min, and plasma was collected and stored at −20° C. The plasma at each time point was taken and added with an acetonitrile solution containing internal standard in 3-5 times the amount, vortexed and mixed for 1 min, and centrifuged at 13,000 rpm at 4° C. for 10 min. The supernatant was collected, added and mixed with water in 3 times the amount. An appropriate amount of the mixture was taken for LC-MS/MS analysis. The main pharmacokinetic parameters were analyzed using WinNonlin 7.0 software with non-compartmental model.

The target of data set [2] is hERG channels (CHO cell line stably expressing hERG) (Homo sapiens (Human), UniProt Q12809). Nature of the data set: Inhibitory effect on hERG by full-automatic electrophysiological patch clamp QPatch. It counts as cell-based.
Sequence of hERG channels (CHO cell line stably expressing hERG) (Q12809 whole entry): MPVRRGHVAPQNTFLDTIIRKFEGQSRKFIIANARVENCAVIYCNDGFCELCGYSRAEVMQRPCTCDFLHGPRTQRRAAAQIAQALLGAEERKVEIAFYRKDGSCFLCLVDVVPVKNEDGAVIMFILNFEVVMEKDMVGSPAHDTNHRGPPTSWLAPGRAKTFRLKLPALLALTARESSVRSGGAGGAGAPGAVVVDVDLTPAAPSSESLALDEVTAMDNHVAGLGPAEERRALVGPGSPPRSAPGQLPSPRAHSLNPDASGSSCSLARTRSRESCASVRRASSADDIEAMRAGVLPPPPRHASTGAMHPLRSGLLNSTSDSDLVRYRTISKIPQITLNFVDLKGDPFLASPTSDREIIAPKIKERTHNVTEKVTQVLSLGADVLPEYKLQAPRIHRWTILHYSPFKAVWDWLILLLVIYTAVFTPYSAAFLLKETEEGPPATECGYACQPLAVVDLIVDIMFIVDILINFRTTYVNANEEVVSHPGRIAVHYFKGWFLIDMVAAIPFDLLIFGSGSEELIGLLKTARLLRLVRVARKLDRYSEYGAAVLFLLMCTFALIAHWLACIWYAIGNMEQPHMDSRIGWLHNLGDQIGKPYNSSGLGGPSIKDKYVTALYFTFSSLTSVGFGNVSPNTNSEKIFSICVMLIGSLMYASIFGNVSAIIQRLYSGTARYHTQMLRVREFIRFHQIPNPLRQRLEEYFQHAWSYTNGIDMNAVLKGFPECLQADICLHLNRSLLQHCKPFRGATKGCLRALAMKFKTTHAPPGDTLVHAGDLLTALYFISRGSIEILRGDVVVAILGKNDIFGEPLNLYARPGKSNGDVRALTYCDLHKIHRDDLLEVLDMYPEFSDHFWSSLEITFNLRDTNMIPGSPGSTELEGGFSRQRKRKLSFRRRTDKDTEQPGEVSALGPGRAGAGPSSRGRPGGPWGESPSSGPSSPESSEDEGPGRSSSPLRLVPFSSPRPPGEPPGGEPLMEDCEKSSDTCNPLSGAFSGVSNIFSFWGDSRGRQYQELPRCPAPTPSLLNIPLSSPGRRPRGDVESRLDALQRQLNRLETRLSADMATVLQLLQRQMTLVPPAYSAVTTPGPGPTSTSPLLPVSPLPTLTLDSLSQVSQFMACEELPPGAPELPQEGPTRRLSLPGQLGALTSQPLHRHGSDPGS
Method: Full-automatic electrophysiological patch clamp QPatch was used to detect the inhibitory effect of compounds on hERG. Cells used in this test were CHO cell line transfected with cDNA of hERG and stably expressing hERG channels (provided by Sophion Bioscience, Denmark), and the cell passage number was P24. The cells were cultured in a medium containing the following components (all purchased from Invitrogen): Ham's F12 medium, inactivated fetal bovine serum (10% (v/v)), hygromycin B (100 μg/ml), and Geneticin (100 μg/ml). CHO hERG cells were grown in a petri dish containing the above-mentioned medium and cultured in an incubator at 37° C. and containing 5% Co2.
The compound to be tested was prepared as a 10 mM stock solution in DMSO solvent, the compound was diluted to 3 mM, 1 mM, 0.3 mM, and 0.1 mM with DMSO, and then the compound was diluted to 30 μM, 10 μM, 3 μM, 1 μM, 0.3 μM and 0.1 μM with the extracellular fluid, so that except that the final concentration of DMSO in the 30 μM compound was 0.3%, the final concentration of DMSO in compound solutions of all other concentrations was 0.1%.
The CHO hERG cells, after being digested and resuspended, were added to the fully automated QPatch system (Sophion, Denmark), and subjected to a test according to the following preset procedure.
After reaching the ruptured whole cell configuration state in the initial stage, the whole cell current was recorded at room temperature (about 25° C.), and the cells were recorded for at least 120 seconds in order to achieve stability. The stable cells were selected for the test. During the whole test, the cell patch clamp was at a voltage of −80 mV, the cell patch clamp voltage was depolarized to +20 mV to activate the hERG potassium channels, and after 2.5 seconds, the cell patch clamp voltage was at −50 mV to eliminate inactivation and generate outward tail current. The peak tail current was used as the value of the hERG current. The voltage mode described above was applied to the cells for electrophysiological tests every 15 seconds. An intracellular liquid containing 0.1% dimethyl sulfoxide (solvent) was added to the cells to establish a baseline, and then the current was allowed to stabilize for 3 min. After the compound solution was added, the cells were kept in the test environment until the effect of the compound reached a steady state or until reaching 4 min. In the test experiments with different concentration gradients of the compound, the compound was added to the clamped cells from low to high concentration. After the compound test was finished, the cells were washed with the extracellular fluid until the current returned to a stable state.
The test data were analyzed by Qpatch analysis software provided by Sophion, Excel, and Graphpad Prism.
A short description of data set [3]: Human liver microsome stability test. It counts as in vitro ADME. The following applies: human liver microsomes. For orientation: Liver microsomes are vesicles of endoplasmic reticulum, rich in cytochrome P450 enzymes.
Method: The human liver microsome stability test was performed by incubating the compound and human liver microsomes in vitro. First, the test compound is prepared as a 10 mM stock solution in DMSO solvent, and then the compound was diluted to 0.5 mM with acetonitrile. Human liver microsomes (Corning) were diluted with PBS and prepared as a microsome/buffer solution, which was used to dilute 0.5 mM of the compound into a working solution. […] A deep-well multiwell plate was taken, 30 μL of the working solution and 15 μL of pre-warmed NADPH solution (6 mM) were sequentially added to each well to initiate a reaction, and the reaction was incubated at 37° C. […] After centrifugation, the supernatant was collected, and added with purified water in a ratio of 1:1 to perform LC-MS/MS detection. […] T1/2 was calculated by using Excel.
Another data set deals with Autotaxin (ATX) enzyme (Homo sapiens (Human), UniProt Q13822). As to the kind of experiment: Autotaxin (ATX) enzyme activity inhibition assay (Cayman Autotaxin Inhibitor Screening Assay Kit). It counts as biochemical. The following applies: OD405, 37° C., 30 min; read-out: IC50, inhibitory activity on ATX activity. On the procedure:
Subsequently, the 8 concentrations were diluted with Autotaxin Assay buffer (1×) provided in the kit into 19× compound working solutions (DMSO content was 1.9%). The Autotaxin Assay Reagent (10×) was taken out and diluted by 10 times with Autotaxin Assay Buffer (1×). The Autotaxin Substrate was taken out, dissolved by adding 1.2 mL of Autotaxin Assay Buffer (1×), mixed evenly and stood at room temperature.

Data set [4] concerns the target ATX enzyme activity in human plasma (Homo sapiens (Human), UniProt Q13822). Nature of the data set: Inhibition test of ATX enzyme activity in human plasma (LPA18:2 formation). It counts as biochemical. The following applies: 37° C., 3 h. On the procedure: Whole blood was collected from healthy volunteers and anticoagulated with heparin. The blood collection tubes were centrifuged at 3,000 rpm for 10 min, and the plasma was taken and stored at −80° C. for use.
The compound was serially diluted with DMSO according to the conventional concentration requirements, and then 3 μL of the diluted compound was added to a 96-well plate, and 147 μL of PBS was added to each well containing 3 μL of the compound. After mixing homogenously, 50 μL of the mixture was removed and added to a new 96-well plate. The human plasma was taken out from the −80° C. refrigerator and thawed through rapid shaking in a 37° C. water bath. 50 μL of the human plasma was taken and added to the 96-well plate containing 50 μL of the diluted compound (the final system was 1% DMSO). The group without the compound was set as the positive control group. The 96-well plate was shaken and mixed uniformly, and incubated at 37° C. for 3 h. A blank group was also provided, and the plasma of the blank group was stored at −80° C. The blank group is provided to determine the baseline concentration of endogenous LPA.
After the incubation was finished, the blank group was thawed on ice and transferred to an incubation plate. Excess acetonitrile containing the internal standard LPA17:0 was added to the incubation plate to precipitate the plasma protein. After vortex centrifugation, the supernatant was taken and diluted, and a peak area of LPA18:2 and a peak area of internal standard LPA17:0 were detected using LC-MSMS mass spectrometry.
According to the inhibition rates of different concentrations of the compound, the IC50 value of the compound, which is related to inhibition of ATX enzyme activity in human plasma, was calculated.

Data set [5] is described as follows: Thermodynamic solubility test. The following applies: thermodynamic from solid. It counts as physicochemical. As to the method:
The compound was accurately weighed, and the prepared phosphate buffer (pH 7.4), FeSSIF solution (pH 5.8) and FaSSGF solution (pH 1.6) were added to prepare a solution with a concentration of 4 mg/mL, which was shaken at 1,000 rpm for 1 hour, and then incubated overnight at room temperature. After the incubation, the solution was centrifuged at 12,000 rpm for 10 min to remove undissolved particles, and the supernatant was transferred to a new centrifuge tube. The supernatant was diluted appropriately, then added with an acetonitrile solution containing the internal standard, and quantified using a standard curve prepared with the same matrix.

The test system of data set [6] is idiopathic pulmonary fibrosis model (IPF model) induced by bleomycin. Nature of the data set: IPF model induced by bleomycin in rats. It counts as in vivo, male BN rats. As to conditions: 30 mg/kg orally twice a day, 21 days; compared with control compound group; FIG. 1. On the procedure: Using male BN rats, 180-240 g, idiopathic pulmonary fibrosis model (IPF model) was induced with a dose of 5 U/kg bleomycin. […] On the second day after the model was established, the animals were orally administered by gavage twice a day, where the administration group was administered with a dose of 30 mg/kg each time, and the solvent control group was administered with a blank solvent, and the administration continued for 21 days. During the administration, the body weight was weighed every three days. On day 21 of administration, alveolar lavage was conducted 2 h after the first administration, the inflammatory cells in the lavage fluid were counted, and the associated biomarkers in the supernatant of the lavage fluid were detected. After lavage, the left lungs of the rats were fixed, and stained with Masson's trichrome staining to score the fibrosis pathology. The remaining lung lobes were cryopreserved. The supernatant of the alveolar lavage fluid and the freshly frozen lung tissue of the three compound groups were taken and detected for a content of TGF-β1 protein and an amount of total protein by using ELISA, and the amount of TGF-β1 per milligram of total protein was calculated.

[7] abbreviates: intravenous administration 1 mg/kg.
Where [8] appears, read: oral administration by gavage 10 mg/kg.

In general, AUC(0-t) refers to the area under the concentration-time curve up to a stated or last time point. A high value points to more exposure. One may read the clearance as the rate of elimination divided by the concentration. A lower clearance goes with inefficient removal. By half-life is commonly meant how long it takes for the measured level to halve. The term Cmax denotes the highest concentration seen after dosing. As a reminder, the Tmax is the time from dosing to the highest level. In general, IC50 refers to the point on the concentration scale where inhibition reaches its midpoint.

Converted amounts (≈) assume the structure as drawn. Read-outs that look alike come from different tables or passages of the source.

For the compound `C[C@@H](Cc1cnn[nH]1)OCC(=O)N1Cc2cnc(NC3Cc4ccccc4C3)nc2C1` [Compound I-2S, (S)-2-((1-(1H-1,2,3-triazol-5-yl)propan-2-yl)oxy)-1-(2-((2,3-dihydro-1H-inden-2-yl)amino)-5,7-dihydro-6H-pyrrolo[3,4-d]pyrimidin-6-yl)ethan-1-one], the exposure AUC(0-t) in data set [1] (setting [7]) stood at 661 ng·h/mL; in data set [1] (setting [8]), 3690 ng·h/mL. In data set [1] (setting [7]), this compound had a clearance of 25.2 mL/min/kg. The half-life is 20.4 min in data set [1] (setting [7]) and 115 min in data set [1] (setting [8]). In data set [1] (intravenous administration 1 mg/kg, read-out: Vz), the Vd worked out at 0.74 L/kg. The same compound displayed a Cmax in data set [1] (setting [8]) of 2420 ng/mL. Also, the Tmax in data set [1] (setting [8]) amounted to 25.2 min. In addition, the IC50 in data set [2] (CHO hERG cells, QPatch) amounted to 8780 nM; on Autotaxin (ATX) enzyme it was 1.4 nM; in data set [4], 2.1 nM. Also, the “hERG IC50/ATX IC50” value in data set [2] (ratio of hERG IC50 (μM) to ATX IC50 (nM)) is 8.87/1.40 = 6.3. Also, the “Remaining percentage (%) of compound after incubation for 30 min” value in data set [3] (30 min, 37° C., NADPH) came out at 42.9%. The compound further registered a half-life at 1 µM in data set [3] (human) of 26.6 min. In addition, the solubility in data set [5] (FaSSGF solution, fassgf or other biorelevant, FaSSGF, pH 1.6, thermodynamic, read-out: Dissolubility FaSSGF (pH 1.6)) worked out at 1240 µg/mL (≈ 2960 µM); in data set [5] (phosphate buffered saline, aqueous buffer, PBS, pH 7.4, thermodynamic, read-out: Dissolubility PBS (pH 7.4)), 73.6 µg/mL (≈ 175 µM). In addition, the “weight reduction of the animals” value in data set [6] is listed as “significantly less than that of the control compound group”.

These data come from patent US12221449B2, “Pyrrolopyrimidine derivative and use thereof” (WUHAN HUMANWELL INNOVATIVE DRUG RESEARCH AND DEVELOPMENT …, priority 2019, dated 2025).
